Results from PMC10382584, “Macrocyclization of linear molecules by deep learning to facilitate macrocyclic drug candidates discovery” (Nature Communications, 2023).

Experiments:
Test in all cases: biochemical
Set-up in all cases: DiscoveRx KINOMEscan competition binding, percent of DMSO control signal at 100 nM
Conditions in all cases: read-out: Fig. 4a / Percent Control / Compound 1; percent of DMSO control, competition binding
MAP4K2 = MAP4K2 (Homo sapiens, UniProt Q12851)
Protocol: (§1) The kinase selectivity profile was performed by using the DiscoveRx KINOMEscan platform. […] Test compounds were prepared as 40× stocks in 100% DMSO and directly diluted into the assay. The results were defined as a percentage of signal between the negative (DMSO, 100% control) and the positive (control compound, 0% control) control, which was calculated as follows: percent control = [(test compound signal − positive control signal)/(negative control signal − positive control signal)] × 100.

BUB1 = BUB1 (Homo sapiens, UniProt O43683)
Sequence of BUB1 (O43683 whole entry): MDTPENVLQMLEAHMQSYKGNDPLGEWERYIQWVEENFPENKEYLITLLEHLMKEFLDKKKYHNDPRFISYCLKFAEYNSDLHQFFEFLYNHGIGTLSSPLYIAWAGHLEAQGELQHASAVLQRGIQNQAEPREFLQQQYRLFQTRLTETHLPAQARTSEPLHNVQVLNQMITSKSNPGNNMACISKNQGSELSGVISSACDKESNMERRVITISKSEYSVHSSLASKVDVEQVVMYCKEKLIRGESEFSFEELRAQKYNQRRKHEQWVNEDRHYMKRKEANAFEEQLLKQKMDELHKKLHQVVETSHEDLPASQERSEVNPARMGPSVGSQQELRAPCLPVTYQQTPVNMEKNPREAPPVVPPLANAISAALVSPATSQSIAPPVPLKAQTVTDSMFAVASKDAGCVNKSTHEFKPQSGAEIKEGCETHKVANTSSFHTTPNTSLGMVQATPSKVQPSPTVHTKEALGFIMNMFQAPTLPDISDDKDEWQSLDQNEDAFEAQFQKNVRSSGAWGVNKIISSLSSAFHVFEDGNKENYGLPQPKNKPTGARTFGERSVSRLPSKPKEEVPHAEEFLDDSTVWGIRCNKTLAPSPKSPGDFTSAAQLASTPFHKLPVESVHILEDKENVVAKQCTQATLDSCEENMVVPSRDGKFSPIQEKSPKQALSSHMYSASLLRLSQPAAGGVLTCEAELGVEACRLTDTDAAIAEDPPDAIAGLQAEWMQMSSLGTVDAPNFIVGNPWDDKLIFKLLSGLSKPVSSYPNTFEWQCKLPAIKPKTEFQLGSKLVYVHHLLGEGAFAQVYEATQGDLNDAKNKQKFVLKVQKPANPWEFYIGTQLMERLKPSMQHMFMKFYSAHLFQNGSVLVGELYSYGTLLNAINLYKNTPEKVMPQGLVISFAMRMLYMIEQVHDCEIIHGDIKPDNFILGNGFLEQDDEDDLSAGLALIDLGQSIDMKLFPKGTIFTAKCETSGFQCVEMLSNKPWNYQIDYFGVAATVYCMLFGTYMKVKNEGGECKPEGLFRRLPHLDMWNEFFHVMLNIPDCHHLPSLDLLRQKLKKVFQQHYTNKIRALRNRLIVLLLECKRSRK
Protocol: as §1

MAP3K3 = MAP3K3 (Homo sapiens, UniProt Q99759)
Sequence of MAP3K3 (Q99759 whole entry): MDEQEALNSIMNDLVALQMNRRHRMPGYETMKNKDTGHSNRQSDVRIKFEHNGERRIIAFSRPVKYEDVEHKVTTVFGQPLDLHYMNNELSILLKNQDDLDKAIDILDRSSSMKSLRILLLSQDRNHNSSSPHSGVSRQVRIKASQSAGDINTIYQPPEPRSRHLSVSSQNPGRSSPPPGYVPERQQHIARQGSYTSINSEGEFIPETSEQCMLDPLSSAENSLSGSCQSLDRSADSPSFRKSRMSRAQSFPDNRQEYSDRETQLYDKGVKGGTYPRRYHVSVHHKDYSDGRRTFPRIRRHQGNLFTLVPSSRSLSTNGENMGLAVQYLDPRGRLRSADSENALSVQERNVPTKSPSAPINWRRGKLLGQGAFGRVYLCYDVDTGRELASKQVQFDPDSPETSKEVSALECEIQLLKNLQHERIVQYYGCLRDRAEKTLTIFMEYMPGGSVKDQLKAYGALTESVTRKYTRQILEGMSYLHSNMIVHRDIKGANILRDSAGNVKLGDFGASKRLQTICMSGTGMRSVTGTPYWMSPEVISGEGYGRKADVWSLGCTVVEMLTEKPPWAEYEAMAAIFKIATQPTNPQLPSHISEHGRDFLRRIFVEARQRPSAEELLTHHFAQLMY
Protocol: as §1

FGFR4 = FGFR4 (Homo sapiens, UniProt P22455)
Protocol: as §1

HCK = HCK (Homo sapiens, UniProt P08631)
Protocol: as §1

[1] = molecular target: T1, ABL1(E255K)-phosphorylated (Homo sapiens, UniProt P00519, E255K)
T1 construct: phosphorylated
T1 sequence (P00519 whole entry E255K): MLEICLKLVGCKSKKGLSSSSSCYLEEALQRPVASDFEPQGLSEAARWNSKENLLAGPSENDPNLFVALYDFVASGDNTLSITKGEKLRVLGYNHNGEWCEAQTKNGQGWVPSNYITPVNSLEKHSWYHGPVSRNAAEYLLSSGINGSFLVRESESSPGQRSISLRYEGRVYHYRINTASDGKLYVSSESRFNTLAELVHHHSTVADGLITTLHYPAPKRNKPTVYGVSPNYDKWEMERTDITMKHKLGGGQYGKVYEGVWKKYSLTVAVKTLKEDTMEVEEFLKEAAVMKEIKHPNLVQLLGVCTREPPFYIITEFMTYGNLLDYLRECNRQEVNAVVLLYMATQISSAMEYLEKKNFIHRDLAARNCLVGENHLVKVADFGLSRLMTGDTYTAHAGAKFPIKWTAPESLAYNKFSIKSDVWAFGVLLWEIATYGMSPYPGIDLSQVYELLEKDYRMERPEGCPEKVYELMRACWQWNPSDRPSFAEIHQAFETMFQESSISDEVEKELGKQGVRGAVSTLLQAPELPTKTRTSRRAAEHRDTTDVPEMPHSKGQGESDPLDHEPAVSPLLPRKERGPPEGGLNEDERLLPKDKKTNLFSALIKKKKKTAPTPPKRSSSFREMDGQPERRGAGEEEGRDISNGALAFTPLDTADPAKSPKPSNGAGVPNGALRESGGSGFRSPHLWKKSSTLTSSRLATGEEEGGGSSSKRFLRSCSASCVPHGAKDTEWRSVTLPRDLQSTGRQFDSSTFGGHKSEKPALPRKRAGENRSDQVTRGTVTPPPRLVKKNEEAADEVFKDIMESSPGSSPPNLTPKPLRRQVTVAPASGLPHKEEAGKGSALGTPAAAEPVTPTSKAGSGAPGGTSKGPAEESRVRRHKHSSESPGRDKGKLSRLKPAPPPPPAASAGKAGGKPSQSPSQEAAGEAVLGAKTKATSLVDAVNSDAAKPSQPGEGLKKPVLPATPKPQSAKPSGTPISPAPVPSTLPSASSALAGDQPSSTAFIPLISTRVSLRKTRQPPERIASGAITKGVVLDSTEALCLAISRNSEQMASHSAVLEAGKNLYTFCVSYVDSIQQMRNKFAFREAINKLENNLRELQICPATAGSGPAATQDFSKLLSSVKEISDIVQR
Protocol: as §1

YANK1 = molecular target: T2, YANK1 (Homo sapiens, UniProt Q8WU08)
T2 construct: gene STK32A
Protocol: as §1

BTK = BTK (Homo sapiens, UniProt Q06187)
Protocol: as §1

SGK2 = SGK2 (Homo sapiens, UniProt Q9HBY8)
Protocol: as §1

KIT(A829P) = KIT(A829P) (Homo sapiens, UniProt P10721, A829P)
Sequence of KIT(A829P) (P10721 whole entry A829P): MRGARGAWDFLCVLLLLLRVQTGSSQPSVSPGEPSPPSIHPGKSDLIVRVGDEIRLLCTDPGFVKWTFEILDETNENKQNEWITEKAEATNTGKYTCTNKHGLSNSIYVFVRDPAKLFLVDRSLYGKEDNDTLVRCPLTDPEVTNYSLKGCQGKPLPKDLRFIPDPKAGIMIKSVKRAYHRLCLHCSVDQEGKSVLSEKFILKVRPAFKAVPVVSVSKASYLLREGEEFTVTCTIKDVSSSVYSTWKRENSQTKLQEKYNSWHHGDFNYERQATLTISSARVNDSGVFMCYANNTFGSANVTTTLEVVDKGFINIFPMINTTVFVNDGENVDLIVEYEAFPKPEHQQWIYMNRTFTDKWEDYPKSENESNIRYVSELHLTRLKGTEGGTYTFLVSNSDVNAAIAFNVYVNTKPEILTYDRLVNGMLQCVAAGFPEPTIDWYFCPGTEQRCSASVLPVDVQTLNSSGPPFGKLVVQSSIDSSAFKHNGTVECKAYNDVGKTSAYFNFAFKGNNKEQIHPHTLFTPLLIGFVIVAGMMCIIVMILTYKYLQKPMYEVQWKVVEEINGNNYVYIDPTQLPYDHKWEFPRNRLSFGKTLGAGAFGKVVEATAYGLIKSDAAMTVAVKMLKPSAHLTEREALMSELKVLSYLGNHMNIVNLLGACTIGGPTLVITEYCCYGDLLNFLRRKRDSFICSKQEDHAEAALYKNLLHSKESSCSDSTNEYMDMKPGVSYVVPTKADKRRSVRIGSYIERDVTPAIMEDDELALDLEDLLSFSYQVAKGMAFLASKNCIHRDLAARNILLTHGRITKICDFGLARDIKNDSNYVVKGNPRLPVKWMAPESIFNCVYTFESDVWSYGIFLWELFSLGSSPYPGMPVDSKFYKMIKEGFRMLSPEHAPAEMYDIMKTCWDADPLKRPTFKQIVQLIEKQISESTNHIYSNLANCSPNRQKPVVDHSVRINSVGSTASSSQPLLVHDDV
Protocol: as §1

HPK1 = molecular target: T3, HPK1 (Homo sapiens, UniProt Q92918)
T3 construct: gene MAP4K1
Protocol: as §1

PAK7 = molecular target: T4, PAK7 (Homo sapiens, UniProt Q9P286)
T4 construct: gene PAK5
Protocol: as §1

CAMKK1 = CAMKK1 (Homo sapiens, UniProt Q8N5S9)
Protocol: as §1

EPHB2 = EPHB2 (Homo sapiens, UniProt P29323)
Sequence of EPHB2 (P29323 whole entry): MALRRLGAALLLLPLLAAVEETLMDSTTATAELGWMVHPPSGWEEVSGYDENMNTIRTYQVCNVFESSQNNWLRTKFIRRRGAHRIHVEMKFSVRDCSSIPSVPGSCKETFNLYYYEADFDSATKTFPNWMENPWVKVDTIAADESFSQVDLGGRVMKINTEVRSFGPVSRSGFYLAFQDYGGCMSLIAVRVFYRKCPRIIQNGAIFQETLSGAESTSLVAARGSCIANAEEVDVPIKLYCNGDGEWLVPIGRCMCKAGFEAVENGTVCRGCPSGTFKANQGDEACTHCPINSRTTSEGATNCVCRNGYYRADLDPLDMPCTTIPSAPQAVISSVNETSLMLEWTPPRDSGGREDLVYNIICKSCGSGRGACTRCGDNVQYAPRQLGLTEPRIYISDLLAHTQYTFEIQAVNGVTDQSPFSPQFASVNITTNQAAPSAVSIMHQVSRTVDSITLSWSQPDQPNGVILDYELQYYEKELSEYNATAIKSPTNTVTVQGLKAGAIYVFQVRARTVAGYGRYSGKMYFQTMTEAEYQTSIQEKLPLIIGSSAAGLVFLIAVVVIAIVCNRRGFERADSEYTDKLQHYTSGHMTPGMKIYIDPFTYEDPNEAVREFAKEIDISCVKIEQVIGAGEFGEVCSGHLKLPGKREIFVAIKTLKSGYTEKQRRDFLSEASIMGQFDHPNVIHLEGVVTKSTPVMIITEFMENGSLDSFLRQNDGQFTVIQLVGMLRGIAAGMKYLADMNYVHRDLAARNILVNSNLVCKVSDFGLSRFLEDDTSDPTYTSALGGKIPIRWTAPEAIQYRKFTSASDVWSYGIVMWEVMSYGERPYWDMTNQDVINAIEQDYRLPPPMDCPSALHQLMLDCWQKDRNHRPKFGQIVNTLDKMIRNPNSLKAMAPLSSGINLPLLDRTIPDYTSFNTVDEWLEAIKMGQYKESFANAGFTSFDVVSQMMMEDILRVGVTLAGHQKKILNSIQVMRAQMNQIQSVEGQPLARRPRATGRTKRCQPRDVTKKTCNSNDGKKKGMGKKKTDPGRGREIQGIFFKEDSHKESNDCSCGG
Protocol: as §1

BRAF = BRAF (Homo sapiens, UniProt P15056)
Protocol: as §1

TNK1 = TNK1 (Homo sapiens, UniProt Q13470)
Protocol: as §1

MEK1 = molecular target: T5, MEK1 (Homo sapiens, UniProt Q02750)
T5 construct: gene MAP2K1
Protocol: as §1

AURKC = AURKC (Homo sapiens, UniProt Q9UQB9)
Protocol: as §1

ABL1-phosphorylated = molecular target: T6, ABL1-phosphorylated (Homo sapiens, UniProt P00519)
T6 construct: phosphorylated
T6 sequence (P00519 whole entry): as the sequence (P00519 whole entry E255K) above, with K255E counted along it
Protocol: as §1

NEK1 = NEK1 (Homo sapiens, UniProt Q96PY6)
Protocol: as §1

PRKCH = PRKCH (Homo sapiens, UniProt P24723)
Protocol: as §1

PRKCD = PRKCD (Homo sapiens, UniProt Q05655)
Protocol: as §1

SGK = molecular target: T7, SGK (Homo sapiens, UniProt O00141)
T7 construct: gene SGK1
Protocol: as §1

KIT(D816H) = KIT(D816H) (Homo sapiens, UniProt P10721, D816H)
Sequence of KIT(D816H) (P10721 whole entry D816H): as the sequence (P10721 whole entry A829P) above, with D816H, P829A counted along it
Protocol: as §1

MKNK2 = MKNK2 (Homo sapiens, UniProt Q9HBH9)
Protocol: as §1
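Note: KINOMEscan kinase panel binding assay, signal normalized between DMSO as 100% and a positive control compound as 0%.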

Q: How did the remaining binding at 0.1 µM (MAP4K2) turn out when `Cc1cnc2nc1Nc1cccc(c1)COCc1cc(ccc1OCCN1CCCC1)N2` [Compound 1] was run?
A: 78%

Q: What about the remaining binding at 0.1 µM (BUB1) of the same molecule?
A: 82%

Q: What about the remaining binding at 0.1 µM (MAP3K3) of the same molecule?
A: 74%

Q: What about the remaining binding at 0.1 µM (FGFR4) of the same molecule?
A: 97%

Q: And the remaining binding at 0.1 µM (HCK)?
A: 100%

Q: What about the remaining binding at 0.1 µM [1] of the same molecule?
A: 79%

Q: And the remaining binding at 0.1 µM (YANK1)?
A: 73%

Q: And the remaining binding at 0.1 µM (BTK)?
A: 86%

Q: And the remaining binding at 0.1 µM (SGK2)?
A: 97%

Q: What about the remaining binding at 0.1 µM (KIT(A829P)) of the same molecule?
A: 45%

Q: What about the remaining binding at 0.1 µM (HPK1) of the same molecule?
A: 72%

Q: And the remaining binding at 0.1 µM (PAK7)?
A: 84%

Q: What about the remaining binding at 0.1 µM (CAMKK1) of the same molecule?
A: 100%

Q: And the remaining binding at 0.1 µM (EPHB2)?
A: 88%

Q: What about the remaining binding at 0.1 µM (BRAF) of the same molecule?
A: 93%

Q: And the remaining binding at 0.1 µM (TNK1)?
A: 38%

Q: What about the remaining binding at 0.1 µM (MEK1) of the same molecule?
A: 77%

Q: And the remaining binding at 0.1 µM (AURKC)?
A: 100%

Q: What about the remaining binding at 0.1 µM (ABL1-phosphorylated) of the same molecule?
A: 90%

Q: What about the remaining binding at 0.1 µM (NEK1) of the same molecule?
A: 100%

Q: And the remaining binding at 0.1 µM (PRKCH)?
A: 91%

Q: And the remaining binding at 0.1 µM (PRKCD)?
A: 100%

Q: What about the remaining binding at 0.1 µM (SGK) of the same molecule?
A: 75%

Q: And the remaining binding at 0.1 µM (KIT(D816H))?
A: 60%

Q: What about the remaining binding at 0.1 µM (MKNK2) of the same molecule?
A: 67%
